Key:
normal mouse fibroblasts = assay: Cell proliferation ([3H]-thymidine incorporation) of normal mouse fibroblasts; format: cell-based; details: FIG. 6; reduction in growth rate but not growth inhibitory
Protocol: (§1) FIGS. 6A and 6B show the effects of platinum complexes on cell proliferation and viability. […] Values are the mean and S.D. of 3-4 independent determinations.
(§2) Proliferating cells were counted by phase-contrast microscopy for viable cells (using trypan blue exclusion. TUNEL staining was carried according to supplier's instructions to detect apoptotic cells. Cells (NIH3T3 or NIH3T3/v-Src) were first treated with or without compounds 24-48 h prior to staining.
(§3) The effects of platinum complexes on cell proliferation measured by [^3H]-thymidine incorporation were investigated.

[1] = tested on: human breast and non-small cell lung cancer cell lines; assay: Cell proliferation ([3H]-thymidine incorporation) of human breast and non-small cell lung cancer cell lines; format: cell-based; details: FIG. 6
Description: as §1, §3

NIH3T3v-Src = assay: Cell proliferation of v-Src-transformed fibroblasts; format: cell-based, mouse; details: FIG. 6
Protocol: as §1, §2, §3

[2] = tested on: human tumor cells that do not contain constitutively-active Stat3; assay: Cell proliferation ([3H]-thymidine incorporation) of human tumor cells without constitutively-active Stat3; format: cell-based; details: FIG. 6; reduction in growth rate but not growth inhibitory
Description: as §1, §3

Stat3 = assay: EMSA of nuclear extracts from treated cells with constitutively-activated Stat3; format: cell-based, mouse and human; details: Src-transformed fibroblasts and human tumor cells, FIG. 3
Protocol: FIG. 3 is a photograph showing the evaluation of effects of platinum complexes on Stat3 activation analyzed by EMSA. Nuclear extracts prepared from malignant cells that contain constitutively-activated Stat3 and treated with platinum complexes for the indicated times were analyzed by EMSA using hSIE oligonucleotide probe. Extracts were prepared from v-Src-transformed NIH3T3/v-Src; human breast carcinoma MDA-MB-231; MDA-MB-435; and […]. Position of Stat3:DNA complex in gel is shown.
Nuclear extracts were prepared from cell lines and used for EMSA as previously described (Turkson et al., 1998; Yu et al., 1995; Garcia et al., 1997). In some cases, cells were pre-treated with platinum complexes for the indicated times prior to harvesting. Where cells were stimulated with EGF (6 ng/ml), duration of treatment was 15 min. Nuclear extracts were pre-incubated with compounds for 30 min at room temperature prior to incubation with radiolabeled probe. The ^32P-radiolabeled oligonucleotide probes used are hSIE (high affinity sis-inducible element, m67 variant, 5′-[…]-3′) (SEQ ID NO:1) that binds both Stat1 and Stat3 (Garcia et al., 1997; Wagner et al., 1990), MGFe (mammary gland factor element from the bovine β-casein gene promoter, 5′-[…]-3′) (SEQ ID NO:2) that binds Stat1 and Stat5 (Gouilleux et al., 1995; Seidel et al., 1995), the NF-κB binding oligo (5′-[…]-3′) (SEQ ID NO:3), and the oligonucleotide sequence from the DHFR promoter that binds E2F1.
The effects of platinum complexes on persistent activation of Stat3 in Src-transformed fibroblasts and human tumor cells were investigated. […] These studies were then extended to evaluate the effects of the platinum complexes on Stat3 transcriptional activity.

[3] = tested on: Stat3-dependent luciferase reporter (pLucTKS3); assay: Stat3-dependent firefly luciferase reporter in NIH3T3/v-Src/pLucTKS3; format: cell-based, mouse; details: NIH3T3/v-Src/pLucTKS3, FIG. 4
Protocol: FIGS. 4A-B show inhibition of Stat3-mediated gene expression in intact cells by platinum complexes. v-Src-transformed mouse fibroblasts that stably express Stat3-dependent (NIH3T3/v-Src/pLucTKS3) and Stat3-independent (NIH3T3/v-Src/pRLSRE) luciferase reporters were treated with platinum complexes for the indicated times. Cytosolic extracts were then prepared from cells for Stat3-dependent firefly luciferase activity (FIG. 4A) and Stat3-independent renilla luciferase measurements (FIG. 4B). Values are the means and S.D. of five independent assays. […]
Cytosolic lysates preparation from fibroblasts for luciferase assays or from baculovirus-infected Sf-9 insect cells have been previously described (Turkson et al., 1998; Turkson et al., 2001; Turkson et al., 1999; Zhang et al., 2000). Luciferase assays were performed as outlined in the supplier's (Promega) manual and measured with a luminometer. […]

[4] = tested on: normal NIH3T3 fibroblasts; assay: TUNEL staining for apoptosis, normal fibroblasts; format: cell-based, mouse; details: 48 h treatment, FIG. 7
Protocol: FIG. 7 is a photograph showing induction of apoptosis by platinum complexes. Normal NIH3T3 fibroblasts and their v-Src-transformed counterparts were treated with platinum complexes for 48 h and analyzed for evidence of DNA damage using TUNEL staining kit.
as §2
Studies have established a critical role for constitutive Stat3 signaling in the survival of transformed and tumor cells (Catlett-Falcone et al., 1999a; Grandis et al., 2000a; Epling-Burnette et al., 2001; Bowman et al., 2000b; Grandis et al., 2000b; Horiguchi et al., 2002). Effects of the subject platinum compounds on viability and survival of malignant cells were evaluated. To determine whether inhibition of persistently-active Stat3 by the subject compounds results in apoptosis, Src-transformed and normal mouse fibroblasts were treated with the subject platinum compounds and subjected to TUNEL staining for evidence of apoptosis.

Row | SMILES | Growth of normal mouse fibroblasts ([3H]-thymidine incorporation) (normal mouse fibroblasts) | Growth of human breast and non-small cell lung cancer cell lines ([3H]-thymidine incorporation) [1] | Growth of Src-transformed mouse fibroblasts ([3H]-thymidine incorporation) (NIH3T3v-Src) | Growth of human tumor cells that do not contain constitutively-active Stat3 [2] | Inhibition of constitutive Stat3 activation in treated cells (EMSA of nuclear extracts) (Stat3) | Stat3-dependent induction of luciferase reporter [3] | Apoptosis (TUNEL staining) in normal fibroblasts [4]
1 | O=[N+]([O-])[Pt]1([Cl])([Cl])([Cl])[NH]CC[NH]1 [ISS CPA-1] | marginal effect | strongly inhibited | strongly inhibited | marginal effect | strong inhibition | significantly suppress | marginal degree of apoptosis
2 | [NH2][Pt]([NH2])([Cl])([Cl])([Cl])[N+](=O)[O-] [ISS CPA-7] | marginal effect | strongly inhibited | strongly inhibited | marginal effect | strong inhibition | significantly suppress | marginal degree of apoptosis
